According to ChEMBL document CHEMBL1201862, “PubChem BioAssay data set” (2004):
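A five-concentration, 48-hour dose response in 96-well plates underlies each endpoint, interpolated linearly between surrounding concentrations. At the GI50, growth is halved.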 The source made the active and inactive calls. Cut-off read from the data, not from the text of the source: active = GI50 up to about 1.1 µM and inactive = higher.

What was measured:
Assay in all cases: growth of human tumour cells (NCI), 48 h
CCRF-CEM = test system: CCRF-CEM
HCT-116 = test system: HCT-116
HCT-15 = test system: HCT-15
HL-60 = test system: HL-60
HOP-92 = test system: HOP-92
KM12 = test system: KM12
MDA-MB-231 = test system: MDA-MB-231
MOLT-4 = test system: MOLT-4
OVCAR-3 = test system: OVCAR-3
PC-3 = test system: PC-3
RXF 393 = test system: RXF 393
SF-539 = test system: SF-539
SK-MEL-28 = test system: SK-MEL-28
SN12C = test system: SN12C
SNB-19 = test system: SNB-19
SR = test system: SR
TK-10 = test system: TK-10
U-251 = test system: U-251
NCI-H522 = test system: NCI-H522
OVCAR-5 = test system: OVCAR-5

SMILES | GI50 (CCRF-CEM) | GI50 (HCT-116) | GI50 (HCT-15) [µM] | GI50 (HL-60) | GI50 (HOP-92) | GI50 (KM12) | GI50 (MDA-MB-231) | GI50 (MOLT-4) | GI50 (OVCAR-3) | GI50 (PC-3) | GI50 (RXF 393) | GI50 (SF-539) | GI50 (SK-MEL-28) | GI50 (SN12C) | GI50 (SNB-19) | GI50 (SR) | GI50 (TK-10) | GI50 (U-251) | GI50 (NCI-H522) | GI50 (OVCAR-5)
S=C(N/N=C/c1ccccn1)N1CCCCC1 | < 0.01 µM (active) | < 0.01 µM (active) | < 0.01 | < 0.01 µM (active) | 0.212 µM (active) | < 0.0262 µM (active) | < 0.01 µM (active) | < 0.01 µM (active) | < 0.01 µM (active) | < 0.01 µM (active) | 0.0705 µM (active) | 0.135 µM (active) | 0.297 µM (active) | < 0.0394 µM (active) | 1.23 µM (inactive) | < 0.01 µM (active) | 0.0205 µM (active) | < 0.0126 µM (active) | – | –
CCOC(=O)c1cc2ncccc2c2ccccc12 | > 100 µM (inactive) | > 100 µM (inactive) | > 100 | > 100 µM (inactive) | > 100 µM (inactive) | > 100 µM (inactive) | > 100 µM (inactive) | > 100 µM (inactive) | > 100 µM (inactive) | > 100 µM (inactive) | > 100 µM (inactive) | – | > 100 µM (inactive) | > 100 µM (inactive) | > 100 µM (inactive) | > 100 µM (inactive) | > 100 µM (inactive) | > 100 µM (inactive) | > 100 µM (inactive) | > 100 µM (inactive)
Clc1ccc(OCc2nnc(COc3ccc(OCc4nnc(COc5ccc(Cl)cc5Cl)o4)c(Cl)c3)o2)c(Cl)c1 | 17.5 µM (inactive) | 44.1 µM (inactive) | 89.7 | 23.1 µM (inactive) | 7.48 µM (inactive) | 45.7 µM (inactive) | 21.7 µM (inactive) | – | 25.2 µM (inactive) | 29.9 µM (inactive) | 20.1 µM (inactive) | – | 46.5 µM (inactive) | 40.3 µM (inactive) | 68.4 µM (inactive) | 20.9 µM (inactive) | 76 µM (inactive) | 23 µM (inactive) | 18.1 µM (inactive) | 36.2 µM (inactive)
COc1cc(/C=C2\N=C(c3ccccc3)N(c3nc4c(Cl)cc(Cl)cc4s3)C2=O)ccc1O | 13.6 µM (inactive) | 24 µM (inactive) | 31.3 | 16.3 µM (inactive) | 21.3 µM (inactive) | 25.4 µM (inactive) | 25.8 µM (inactive) | 0.059 µM (active) | 24.2 µM (inactive) | 19.5 µM (inactive) | 20.9 µM (inactive) | 41.6 µM (inactive) | 52 µM (inactive) | 22.2 µM (inactive) | 36.6 µM (inactive) | 11.1 µM (inactive) | 39.9 µM (inactive) | 22.9 µM (inactive) | – | 71 µM (inactive)
Cc1ccc(S(=O)(=O)NNC(=O)c2cc(C)c(C)cc2N)cc1 | > 100 µM (inactive) | > 100 µM (inactive) | > 100 | > 100 µM (inactive) | > 100 µM (inactive) | > 100 µM (inactive) | > 100 µM (inactive) | 66.2 µM (inactive) | 94.2 µM (inactive) | > 100 µM (inactive) | > 100 µM (inactive) | > 100 µM (inactive) | > 100 µM (inactive) | > 100 µM (inactive) | > 100 µM (inactive) | > 100 µM (inactive) | – | > 100 µM (inactive) | 47 µM (inactive) | > 100 µM (inactive)
Cc1cc(S(=O)(=O)Nc2nc3ccccc3n2-c2ccccc2)c(S)cc1Cl | > 100 µM (inactive) | > 100 µM (inactive) | > 100 | > 100 µM (inactive) | > 100 µM (inactive) | > 100 µM (inactive) | > 100 µM (inactive) | > 100 µM (inactive) | > 100 µM (inactive) | > 100 µM (inactive) | > 100 µM (inactive) | > 100 µM (inactive) | > 100 µM (inactive) | – | 82.2 µM (inactive) | 69.7 µM (inactive) | – | > 100 µM (inactive) | > 100 µM (inactive) | > 100 µM (inactive)
CC1=NN(c2ccccc2)C(=O)/C1=C/c1ccc(O)cc1 | > 100 µM (inactive) | > 100 µM (inactive) | > 100 | > 100 µM (inactive) | > 100 µM (inactive) | > 100 µM (inactive) | > 100 µM (inactive) | > 100 µM (inactive) | > 100 µM (inactive) | > 100 µM (inactive) | > 100 µM (inactive) | > 100 µM (inactive) | > 100 µM (inactive) | > 100 µM (inactive) | > 100 µM (inactive) | 84.3 µM (inactive) | > 100 µM (inactive) | > 100 µM (inactive) | – | > 100 µM (inactive)
C/C(=N\Nc1nc2ccccc2n1C)c1cnccn1 | 0.0513 µM (active) | 0.0265 µM (active) | 0.0438 | 0.0178 µM (active) | 0.227 µM (active) | 0.824 µM (active) | 0.044 µM (active) | < 0.0261 µM (active) | 0.0326 µM (active) | 0.0426 µM (active) | 1.23 µM (inactive) | 0.692 µM (active) | 0.565 µM (active) | 0.0395 µM (active) | 2.73 µM (inactive) | 0.0649 µM (active) | 0.0703 µM (active) | 0.339 µM (active) | 0.129 µM (active) | –
CS/C(N)=N/c1cccc2ccccc12 | > 10 µM (inactive) | > 10 µM (inactive) | > 10 | > 10 µM (inactive) | > 10 µM (inactive) | > 10 µM (inactive) | > 10 µM (inactive) | > 10 µM (inactive) | > 10 µM (inactive) | > 10 µM (inactive) | > 10 µM (inactive) | > 10 µM (inactive) | > 10 µM (inactive) | > 10 µM (inactive) | > 10 µM (inactive) | > 10 µM (inactive) | > 10 µM (inactive) | > 10 µM (inactive) | > 10 µM (inactive) | –
N#C/C(=C\n1ccc(=O)[nH]c1=S)C(N)=O | > 100 µM (inactive) | > 100 µM (inactive) | > 100 | > 100 µM (inactive) | 73.6 µM (inactive) | > 100 µM (inactive) | > 100 µM (inactive) | > 100 µM (inactive) | < 0.01 µM (active) | > 100 µM (inactive) | > 100 µM (inactive) | > 100 µM (inactive) | > 100 µM (inactive) | > 100 µM (inactive) | > 100 µM (inactive) | > 100 µM (inactive) | – | > 100 µM (inactive) | > 100 µM (inactive) | > 100 µM (inactive)
N#C/C(=C\c1cccc(Br)c1)c1nc2ccccc2c(=O)[nH]1 | > 100 µM (inactive) | > 100 µM (inactive) | > 100 | > 100 µM (inactive) | 15.1 µM (inactive) | > 100 µM (inactive) | 41.7 µM (inactive) | > 100 µM (inactive) | – | > 100 µM (inactive) | > 100 µM (inactive) | 47.9 µM (inactive) | > 100 µM (inactive) | > 100 µM (inactive) | 43.7 µM (inactive) | 92.9 µM (inactive) | 42.1 µM (inactive) | 40.3 µM (inactive) | 37.9 µM (inactive) | > 100 µM (inactive)
NC(=O)C(=CNC(=S)Nc1ccccc1)C(N)=O | > 100 µM (inactive) | > 100 µM (inactive) | > 100 | > 100 µM (inactive) | 29.9 µM (inactive) | > 100 µM (inactive) | > 100 µM (inactive) | > 100 µM (inactive) | 1.05 µM (active) | > 100 µM (inactive) | > 100 µM (inactive) | > 100 µM (inactive) | > 100 µM (inactive) | > 100 µM (inactive) | > 100 µM (inactive) | > 100 µM (inactive) | – | > 100 µM (inactive) | > 100 µM (inactive) | > 100 µM (inactive)
O=[N+]([O-])c1cccc2nc3ccccc3c(NCCN(CCO)CCO)c12 | – | 0.00114 µM (active) | 0.0108 | 0.0104 µM (active) | 0.00447 µM (active) | 0.00498 µM (active) | 0.00268 µM (active) | – | 0.00536 µM (active) | 0.00213 µM (active) | 0.00121 µM (active) | 0.00689 µM (active) | – | 0.00537 µM (active) | 0.00783 µM (active) | 0.00123 µM (active) | 0.00836 µM (active) | 0.00391 µM (active) | 0.00116 µM (active) | 0.00501 µM (active)
O=C1C=C2CO[C@H]3OC[C@H](O)[C@@H]1[C@@H]23 | 19 µM (inactive) | 88.1 µM (inactive) | 44 | 23.6 µM (inactive) | 46.3 µM (inactive) | > 100 µM (inactive) | 73.3 µM (inactive) | 28.9 µM (inactive) | > 100 µM (inactive) | > 100 µM (inactive) | 19.9 µM (inactive) | – | 33.6 µM (inactive) | 22.9 µM (inactive) | > 100 µM (inactive) | 22.6 µM (inactive) | 59.3 µM (inactive) | 19.7 µM (inactive) | 16.5 µM (inactive) | 73.5 µM (inactive)
COc1ccc(-c2nnc3n(C)c4ccccc4n3c2=O)cc1 | > 100 µM (inactive) | 48.6 µM (inactive) | > 100 | > 100 µM (inactive) | > 100 µM (inactive) | > 100 µM (inactive) | 18.2 µM (inactive) | > 100 µM (inactive) | – | > 100 µM (inactive) | 31.1 µM (inactive) | 32.7 µM (inactive) | > 100 µM (inactive) | 59 µM (inactive) | 91.8 µM (inactive) | > 100 µM (inactive) | 89.1 µM (inactive) | 27.7 µM (inactive) | 77.8 µM (inactive) | > 100 µM (inactive)
